One data set has as its system human cancer cell lines. Nature of the data set: Cytotoxic activity of taurultam in vitro. The data set is classed as cell-based. Here is the method:
The cytotoxic activity of taurultam was evaluated in vitro using the same human cancer cell lines as described above. […] The data also indicate that the cytotoxic effect is directly proportionate to the number of methylol molecules liberated per molecule of methylol-containing compound

In data set [1] the test system is Untransfected glioblastoma cells. The data set can be described thus: Cytotoxicity in glioblastoma cells. The note with it: 1 μM. The data set is classed as cell-based, human.
Source text: (§1) The neoplastic cell lines used in the survey were standard tumor cell lines, e.g., PA1 human ovarian cell line, SKOV3 human ovarian cell line, HT29 human colon tumor cell line, DU145 human prostate tumor cell line, U251 human glioblastoma cell line, U251-MDR human glioblastoma cell line transfected with DNA encoding MDR, T98G human glioblastoma cell line, SP-1 human leukemia cell line, and Daudi human leukemia cell line.
(§2) Glioblastoma cells were transfected with a gene encoding multiple drug resistance (MDR).
Data set [2] relates to MDR-transfected glioblastoma cells. Nature of the data set: Cytotoxicity in drug resistant glioblastoma cells.
Source text: as §1, §2

Take `O=S1(=O)CCNCN1` [taurultam]: in the data set with human cancer cell lines (cancer cells versus normal control cells), the apoptotic death entry is given as “induced apoptotic death of cancer cells but not normal control cells”. Besides, in the data set on human cancer cell lines (of the activity observed with taurolidine), the “cytotoxic activity relative to taurolidine” value is recorded as “approximately 75%”.
As for `COc1cccc2c1C(=O)c1c(O)c3c(c(O)c1C2=O)C[C@@](O)(C(=O)CO)C[C@@H]3O[C@H]1C[C@H](N)[C@H](O)[C@H](C)O1` [adriamycin], the cytotoxicity entry in data set [1] is “killed”; in data set [2] (1 μM), “resistant”. The “resistance of transfected cells” value in data set [2] (MDR-transfected versus untransfected) is 100-1000 times.

(Values after patent publication US6703413B2 (Rhode Island Hospital, priority 1999, dated 2004).)
